Here are results for one compound from PMC11678869, “Functional Role of Odorant-Binding Proteins in Response to Sex Pheromone Component Z8-14:Ac in Grapholita molesta (Busck)” (Insects, 2024).

Each structure is given as a SMILES string.

By Kd is commonly meant the constant that tells how readily two partners part at equilibrium. Higher therefore signals lower affinity.

Experiment in all cases: Fluorescence competitive binding assay with 1-NPN probe
One experiment addresses rGmolPBP1 (Grapholita molesta, UniProt A0A2R4SBD6). An excerpt: (§1) Previous researchers have successfully expressed rGmolPBP1, rGmolPBP2, rGmolPBP3, rGmolGOBP1, and rGmolGOBP2 proteins using prokaryotic expression systems. In this article, the DNA sequences of these five GmolPBPs and GmolGOBPs, with the signal peptides removed and restriction sites on both ends, were inserted into the expression vector pET28a(+) linearized with the same restriction enzyme. These vectors were then transformed into Escherichia coli BL21(DE3) and induced by isopropyl-β-d-thiogalactoside (IPTG). Since all five recombinant proteins were expressed in inclusion bodies, they were denatured using 8 M urea and then renatured using a cysteine/cystine REDOX system. The reduced recombinant proteins were purified using an Ni-NTA His Bind Resin column (7Sea Pharmatech Co., Ltd., Shanghai, China). Non-target proteins were washed off with washing buffer (20 mM Tris-HCl (pH 7.4), 20 mM imidazole, 1 mM PMSF, and 250 mM NaCl), and then the target proteins were eluted with elution buffer (20 mM Tris-HCl (pH 7.4), 1 mM PMSF, and 250 mM NaCl) with an increasing concentration of imidazole (50, 100, and 200 mM). Five milliliters of eluents with high target protein content and low levels of contaminants were collected and placed in dialysis tubing (Coolaber, Beijing, China) with a molecular weight cut-off of 3.5 kDa to remove NaCl and imidazole. The purified soluble proteins were stored at −80 °C before use.
(§2) The binding affinities of three rGmolPBPs and two rGmolGOBPs for Z8-14:Ac were determined using an F-2700 fluorescence spectrophotometer (Hitachi, Tokyo, Japan). First, we measured the dissociation constants (Kd) of the rGmolPBPs (or rGmolGOBPs) binding to 1−NPN. Each protein was diluted to 2 μM with 20 mM Tris-HCl buffer (pH 7.4); then, 2 mL of the protein solution was transferred to a quartz cuvette and titrated with 1 mM 1−NPN to a final concentration of 1–18 μM. As the doses of 1−NPN were increased, the increasing amplitude of the fluorescence intensity decreased, and finally, the binding of the protein to 1−NPN reached saturation. The Kd values were calculated using the nonlinear regression method and the Scatchard equation. Second, we measured the inhibitory constant (Ki) of Z8-14:Ac’s competitive binding with each rGmolPBP (or rGmolGOBP) from the protein/1−NPN complex. The initial fluorescence intensity values were measured after a 2 min reaction in 2 mL solution of 20 mM Tris-HCl (pH 7.4) containing 2 µM rGmolPBP (or rGmolGOBP) protein and 2 µM 1−NPN. Then, the solution was titrated with aliquots of 1 mM Z8-14:Ac to obtain final concentrations in the range of 1–14 µM, and the fluorescence intensity value of each reaction was recorded. The Ki values were calculated using the following equation: Ki = [IC50]/(1 + [1 − NPN]/Kd) where IC50 is the concentration of Z8-14:Ac when half of the initial fluorescence intensity value of the rGmolPBP (or GmolGOBP)/1−NPN complex is replaced, [1 − NPN] represents the concentration of free 1−NPN, and Kd is the dissociation constant of the rGmolPBP (or GmolGOBP)/1−NPN complex.

A further experiment concerns the target rGmolPBP2 (wild-type) (Grapholita molesta, UniProt A0A059VC28).
From the text: as §1, §2

The target in a further experiment is rGmolPBP3 (Grapholita molesta, UniProt A0A059VBP3).
From the text: as §1, §2

The next experiment deals with rGmolGOBP1 (Grapholita molesta, UniProt H9XTU5).
From the text: as §1, §2

A further experiment deals with rGmolGOBP2 (Grapholita molesta, UniProt H9XTU6).
From the text: as §1, §2

Sequence of rGmolPBP1 (A0A2R4SBD6 entry or part of it): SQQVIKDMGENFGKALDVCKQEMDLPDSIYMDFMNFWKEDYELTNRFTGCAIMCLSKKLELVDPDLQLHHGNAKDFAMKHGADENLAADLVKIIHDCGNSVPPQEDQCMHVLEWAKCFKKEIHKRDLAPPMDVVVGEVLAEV
Sequence of rGmolPBP2 (wild-type) (A0A059VC28 entry or part of it): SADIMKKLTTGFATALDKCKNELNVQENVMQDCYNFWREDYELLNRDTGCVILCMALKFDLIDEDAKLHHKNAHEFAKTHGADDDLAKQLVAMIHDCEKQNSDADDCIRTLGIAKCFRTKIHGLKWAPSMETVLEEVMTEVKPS
Sequence of rGmolPBP3 (A0A059VBP3 entry or part of it): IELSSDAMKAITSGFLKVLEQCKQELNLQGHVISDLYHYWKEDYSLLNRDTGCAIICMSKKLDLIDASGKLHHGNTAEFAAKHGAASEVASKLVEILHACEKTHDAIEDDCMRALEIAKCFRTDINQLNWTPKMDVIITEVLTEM
Sequence of rGmolGOBP2 (H9XTU6 entry or part of it): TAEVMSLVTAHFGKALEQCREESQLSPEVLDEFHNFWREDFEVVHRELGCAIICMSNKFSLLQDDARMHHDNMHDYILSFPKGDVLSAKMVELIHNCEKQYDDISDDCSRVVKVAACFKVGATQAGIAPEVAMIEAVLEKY
Sequence of rGmolGOBP1 (H9XTU5 entry or part of it): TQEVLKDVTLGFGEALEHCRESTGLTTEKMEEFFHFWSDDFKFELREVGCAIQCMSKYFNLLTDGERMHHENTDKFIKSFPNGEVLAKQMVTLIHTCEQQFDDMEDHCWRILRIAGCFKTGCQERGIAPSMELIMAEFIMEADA

`c1ccc(Nc2cccc3ccccc23)cc1` [1−NPN, N-Phenyl-1-naphthylamine, reference compound]: the Kd on rGmolPBP1 worked out at 1.29 ± 0.02 µM; on rGmolPBP2 (wild-type) it was 1.09 ± 0.02 µM; on rGmolPBP3, 11.24 ± 0.08 µM; on rGmolGOBP1, 5.76 ± 0.01 µM; on rGmolGOBP2, 4.32 ± 0.02 µM.
